Results from US9216999B2, “Substituted pyrrolo[2,3-h][1,6]naphthyridines and compositions thereof as JAK inhibitors” (priority 2011, dated 2015).
Where two headings read alike, the source gives them in different places.

How the values were obtained:
Format in all cases: biochemical
JAK2 = JAK2 (Homo sapiens (Human), UniProt O60674); assay: Enzyme assay (Assay Example^a 1), JAK2
Tyk2 = Tyk2 (Homo sapiens (Human), UniProt P29597); assay: Enzyme assay (Assay Example^a 1), Tyk2; conditions: ATP 100 μM
JAK3 = JAK3 (Homo sapiens (Human), UniProt P52333); assay: Enzyme assay (Assay Example^a 1), JAK3
JAK1 = JAK1 (Homo sapiens (Human), UniProt P23458); assay: Enzyme assay (Assay Example^a 1), JAK1; conditions: ATP 100 μM

Chain of Tyk2 (P29597 whole entry): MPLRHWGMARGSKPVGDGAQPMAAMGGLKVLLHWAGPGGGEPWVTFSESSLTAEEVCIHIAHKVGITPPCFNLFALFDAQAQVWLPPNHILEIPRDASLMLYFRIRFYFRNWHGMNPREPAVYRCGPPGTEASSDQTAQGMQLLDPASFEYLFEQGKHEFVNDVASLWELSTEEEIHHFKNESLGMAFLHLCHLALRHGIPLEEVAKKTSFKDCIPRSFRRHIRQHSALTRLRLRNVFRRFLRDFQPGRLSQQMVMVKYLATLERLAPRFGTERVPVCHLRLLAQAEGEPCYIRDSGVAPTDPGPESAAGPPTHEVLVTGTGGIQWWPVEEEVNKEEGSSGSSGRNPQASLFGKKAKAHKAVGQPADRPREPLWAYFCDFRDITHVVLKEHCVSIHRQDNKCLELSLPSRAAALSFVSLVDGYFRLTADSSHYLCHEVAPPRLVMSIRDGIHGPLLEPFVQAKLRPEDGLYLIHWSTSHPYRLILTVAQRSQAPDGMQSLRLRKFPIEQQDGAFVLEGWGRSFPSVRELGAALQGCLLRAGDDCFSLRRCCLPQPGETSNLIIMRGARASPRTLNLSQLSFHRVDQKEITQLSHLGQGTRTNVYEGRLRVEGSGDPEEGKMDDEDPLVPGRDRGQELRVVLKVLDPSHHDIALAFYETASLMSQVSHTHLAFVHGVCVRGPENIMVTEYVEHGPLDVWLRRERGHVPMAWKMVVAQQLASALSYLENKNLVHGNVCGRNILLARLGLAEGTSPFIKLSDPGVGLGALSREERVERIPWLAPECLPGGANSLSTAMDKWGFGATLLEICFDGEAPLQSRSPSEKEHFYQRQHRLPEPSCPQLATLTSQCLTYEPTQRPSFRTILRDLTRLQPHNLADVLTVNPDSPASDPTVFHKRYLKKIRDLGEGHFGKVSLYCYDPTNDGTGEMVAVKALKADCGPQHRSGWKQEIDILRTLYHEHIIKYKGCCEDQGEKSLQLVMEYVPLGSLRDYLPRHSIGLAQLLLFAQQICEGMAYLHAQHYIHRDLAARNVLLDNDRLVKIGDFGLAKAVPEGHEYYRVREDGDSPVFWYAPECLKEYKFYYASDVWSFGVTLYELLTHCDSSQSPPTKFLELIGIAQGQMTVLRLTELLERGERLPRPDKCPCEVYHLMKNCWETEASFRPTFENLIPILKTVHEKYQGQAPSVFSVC
Chain of JAK3 (P52333 whole entry): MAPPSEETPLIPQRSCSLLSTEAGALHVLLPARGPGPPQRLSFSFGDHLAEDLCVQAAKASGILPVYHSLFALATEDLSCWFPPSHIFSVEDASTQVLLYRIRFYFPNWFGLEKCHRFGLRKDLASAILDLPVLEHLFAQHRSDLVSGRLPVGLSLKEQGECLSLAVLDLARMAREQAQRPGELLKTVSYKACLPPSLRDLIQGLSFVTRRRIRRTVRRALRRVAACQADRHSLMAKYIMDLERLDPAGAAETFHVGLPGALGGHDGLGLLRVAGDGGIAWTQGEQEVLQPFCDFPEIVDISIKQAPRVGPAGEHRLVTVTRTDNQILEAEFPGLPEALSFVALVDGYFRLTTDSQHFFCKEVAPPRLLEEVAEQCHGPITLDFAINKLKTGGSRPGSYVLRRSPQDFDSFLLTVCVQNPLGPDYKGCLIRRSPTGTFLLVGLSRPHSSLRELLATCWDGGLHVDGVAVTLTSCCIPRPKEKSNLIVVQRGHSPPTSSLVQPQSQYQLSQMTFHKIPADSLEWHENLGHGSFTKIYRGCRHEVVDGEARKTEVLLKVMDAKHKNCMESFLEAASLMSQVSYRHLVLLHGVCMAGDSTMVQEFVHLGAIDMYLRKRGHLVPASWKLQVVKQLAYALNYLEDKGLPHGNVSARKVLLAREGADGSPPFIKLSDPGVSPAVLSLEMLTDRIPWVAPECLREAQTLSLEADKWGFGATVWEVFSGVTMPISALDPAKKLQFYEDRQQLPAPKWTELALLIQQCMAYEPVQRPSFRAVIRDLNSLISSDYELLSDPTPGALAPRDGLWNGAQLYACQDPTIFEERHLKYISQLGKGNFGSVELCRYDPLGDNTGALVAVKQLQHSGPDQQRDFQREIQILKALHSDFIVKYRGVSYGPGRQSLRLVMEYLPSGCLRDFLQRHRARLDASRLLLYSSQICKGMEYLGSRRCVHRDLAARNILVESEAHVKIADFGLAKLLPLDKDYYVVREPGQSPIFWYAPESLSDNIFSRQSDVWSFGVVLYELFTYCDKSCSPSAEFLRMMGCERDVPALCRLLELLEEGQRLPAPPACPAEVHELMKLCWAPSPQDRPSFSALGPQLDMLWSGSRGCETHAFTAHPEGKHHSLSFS

Row | SMILES | IC50 (JAK2; ATP 100 μM) | IC50 (JAK3; ATP 100 μM) | IC50 (Tyk2) | IC50 (JAK1) | IC50 (JAK2) | IC50 (JAK3) | IC50 (JAK2; ATP 100 μM, Table^a 154) | IC50 (Tyk2; Table^a 154) | IC50 (JAK3; ATP 100 μM, Table^a 154) | IC50 (JAK1; Table^a 154)
1 | N#CCCN[C@H]1CC[C@H](c2nnn3cnc4[nH]ccc4c23)CC1 [394b, 3-{[trans-4-(7H-pyrrolo[3,2-e][1,2,3]triazolo[1,5-c]pyrimidin-1-yl)cyclohexyl]amino}propanenitrile] | 0.09 µM | > 1 µM | > 1 µM | 0.015 µM |  |  |  |  |  | 
2 | Fc1cc(NC[C@H]2CC[C@H](c3nnn4cnc5[nH]ccc5c34)CC2)cc(F)c1F [compound 250, N-{[trans-4-(7H-pyrrolo[3,2-e][1,2,3]triazolo[1,5-c]pyrimidin-1-yl)cyclohexyl]methyl}-3,4,5-trifluoroaniline] | 0.18 µM | > 1 µM | > 1 µM | 0.031 µM |  |  |  |  |  | 
3 | FC(F)(Br)CN[C@H]1CC[C@@H](c2nnn3cnc4[nH]ccc4c23)CC1 [382a, cis-N-(2-bromo-2,2-difluoroethyl)-4-(7H-pyrrolo[3,2-e][1,2,3]triazolo[1,5-c]pyrimidin-1-yl)cyclohexanamine] |  |  | 0.76 µM | 0.015 µM | 0.063 µM | 0.75 µM |  |  |  | 
4 | CC(C)(C)OC(=O)NCCN1CCC(c2nnn3cnc4[nH]ccc4c23)CC1 [compound 171, tert-butyl {2-[4-(7H-pyrrolo[3,2-e][1,2,3]triazolo[1,5-c]pyrimidin-1-yl)piperidin-1-yl]ethyl}carbamate] |  |  |  |  |  |  | 0.94 µM | > 1 µM | > 1 µM | 0.1 µM
5 | FC(F)(F)COC1CN(C[C@H]2CC[C@H](c3nnn4cnc5[nH]ccc5c34)CC2)C1 [compound 421, 1-(trans-4-{[3-(2,2,2-Trifluoroethoxy)azetidin-1-yl]methyl}cyclohexyl)-7H-pyrrolo[3,2-e][1,2,3]triazolo[1,5-c]pyrimidine] | 0.17 µM | > 1 µM | > 1 µM | 0.01 µM |  |  |  |  |  | 
6 | c1cc2c(ncn3nnc([C@H]4CC[C@H](CN5CCC(N6CCOCC6)CC5)CC4)c23)[nH]1 [compound 334, 4-(1-{[trans-4-(7H-pyrrolo[3,2-e][1,2,3]triazolo[1,5-c]pyrimidin-1-yl)cyclohexyl]methyl}piperidin-4-yl)morpholine] | > 1 µM | > 1 µM | > 1 µM | 0.064 µM |  |  |  |  |  | 
7 | Fc1cc(CN2CCC(c3nnn4cnc5[nH]ccc5c34)CC2)ccc1Cl [compound 159] |  |  |  |  |  |  | 0.011 µM | 0.3 µM | 0.08 µM | 0.0016 µM
8 | FC(F)(F)CN(CC1CC1)C[C@H]1CC[C@H](c2nnn3cnc4[nH]ccc4c23)CC1 [compound 415, N-{[trans-4-(7H-pyrrolo[3,2-e][1,2,3]triazolo[1,5-c]pyrimidin-1-yl)cyclohexyl]methyl}-N-(cyclopropylmethyl)-2,2,2-trifluoroethanamine] | 0.095 µM | > 1 µM | > 1 µM | 0.03 µM |  |  |  |  |  | 
9 | Fc1ccc(CN2CCC(c3nnn4cnc5[nH]ccc5c34)CC2)cc1F [compound 166, 1-[1-(3,4-difluorobenzyl)piperidin-4-yl]-7H-pyrrolo[3,2-e][1,2,3]triazolo[1,5-c]pyrimidine] |  |  |  |  |  |  | 0.023 µM | 0.49 µM | 0.17 µM | 0.0053 µM
10 | Fc1cc(C(F)(F)F)ccc1CN1CCC(c2nnn3cnc4[nH]ccc4c23)CC1 [compound 157] |  |  |  |  |  |  | 0.02 µM | 0.31 µM | 0.24 µM | 0.002 µM
11 | O=C(N[C@@H]1CCN(C[C@H]2CC[C@H](c3nnn4cnc5[nH]ccc5c34)CC2)C1)C(F)(F)F [compound 320, N-((R)-1-{[trans-4-(7H-pyrrolo[3,2-e][1,2,3]triazolo[1,5-c]pyrimidin-1-yl)cyclohexyl]methyl}pyrrolidin-3-yl)-2,2,2-trifluoroacetamide] | 0.057 µM | > 1 µM | 0.86 µM | 0.0076 µM |  |  |  |  |  | 
12 | FC(F)(F)C1CCC(N2CCC(c3nnn4cnc5[nH]ccc5c34)CC2)CC1 (single isomer, unassigned) [56b] |  |  |  |  |  |  | 0.6 µM | > 1 µM | > 1 µM | 0.035 µM
13 | N#Cc1ccc(CN2CCC(c3nnn4cnc5[nH]ccc5c34)CC2)cc1C#N [compound 242, 4-{[4-(7H-pyrrolo[3,2-e][1,2,3]triazolo[1,5-c]pyrimidin-1-yl)piperidin-1-yl]methyl}phthalonitrile] | 0.052 µM | 0.96 µM | > 1 µM | 0.0065 µM |  |  |  |  |  | 
14 | OCCOc1ccc(CN2CCC(c3nnn4cnc5[nH]ccc5c34)CC2)cc1 [compound 168, 2-(4-{[4-(7H-pyrrolo[3,2-e][1,2,3]triazolo[1,5-c]pyrimidin-1-yl)piperidin-1-yl]methyl}phenoxy)ethanol] |  |  |  |  |  |  | 0.71 µM | > 1 µM | > 1 µM | 0.084 µM
15 | N#CC=C1CCC(c2nnn3cnc4[nH]ccc4c23)CC1 (stereo not shown) [compound 434, 2-[4-(7H-pyrrolo[3,2-e][1,2,3]triazolo[1,5-c]pyrimidin-1-yl)cyclohexylidene]acetonitrile] | 0.014 µM | 0.49 µM | 0.034 µM | 0.0023 µM |  |  |  |  |  | 
16 | FC(F)(F)C(F)(F)CN[C@H]1CC[C@H](c2nnn3cnc4[nH]ccc4c23)CC1 [383b, trans-N-(2,2,3,3,3-pentafluoropropyl)-4-(7H-pyrrolo[3,2-e][1,2,3]triazolo[1,5-c]pyrimidin-1-yl)cyclohexanamine] | 0.013 µM | 0.5 µM | 0.17 µM | 0.0015 µM |  |  |  |  |  | 
17 | c1cc2c(ncn3nnc(C4CCN(Cc5cnc(N6CCOCC6)s5)CC4)c23)[nH]1 [compound 234, 4-(5-{[4-(7H-pyrrolo[3,2-e][1,2,3]triazolo[1,5-c]pyrimidin-1-yl)piperidin-1-yl]methyl}thiazol-2-yl)morpholine] | 0.88 µM | > 1 µM | > 1 µM | 0.36 µM |  |  |  |  |  | 

The next lines start with results.

Row | IC50 (JAK2; ATP 100 μM) | IC50 (JAK3; ATP 100 μM) | SMILES | IC50 (Tyk2) | IC50 (JAK1) | IC50 (JAK2) | IC50 (JAK3) | IC50 (JAK2; ATP 100 μM, Table^a 154) | IC50 (Tyk2; Table^a 154) | IC50 (JAK3; ATP 100 μM, Table^a 154) | IC50 (JAK1; Table^a 154)
18 | 0.024 µM | 0.53 µM | c1cc2c(ncn3nnc([C@H]4CC[C@H](CN5CCSC5)CC4)c23)[nH]1 [compound 254, 3-{[trans-4-(7H-pyrrolo[3,2-e][1,2,3]triazolo[1,5-c]pyrimidin-1-yl)cyclohexyl]methyl}thiazolidine] | 0.16 µM | 0.0071 µM |  |  |  |  |  | 
19 | 0.11 µM | 0.9 µM | c1cc2c(ncn3nnc([C@H]4CC[C@H](CNC5CCC5)CC4)c23)[nH]1 [compound 283, N-{[trans-4-(7H-pyrrolo[3,2-e][1,2,3]triazolo[1,5-c]pyrimidin-1-yl)cyclohexyl]methyl}cyclobutanamine] | 0.23 µM | 0.014 µM |  |  |  |  |  | 
20 | 0.1 µM | 0.94 µM | COCC1(NC[C@H]2CC[C@H](c3nnn4cnc5[nH]ccc5c34)CC2)CC1 [compound 293, N-{[trans-4-(7H-pyrrolo[3,2-e][1,2,3]triazolo[1,5-c]pyrimidin-1-yl)cyclohexyl]methyl}-1-(methoxymethyl)cyclopropanamine] | 0.31 µM | 0.024 µM |  |  |  |  |  | 
21 | 0.013 µM | 0.22 µM | N#CCC(=O)N(CC#N)C[C@H]1CC[C@H](c2nnn3cnc4[nH]ccc4c23)CC1 [compound 408, N-{[trans-4-(7H-pyrrolo[3,2-e][1,2,3]triazolo[1,5-c]pyrimidin-1-yl)cyclohexyl]methyl}-2-cyano-N-(cyanomethyl)acetamide] | 0.31 µM | 0.0052 µM |  |  |  |  |  | 
22 | 0.081 µM | 0.62 µM | c1cc2c(ncn3nnc(C4CCN(Cc5cocn5)CC4)c23)[nH]1 [compound 219, 4-{[4-(7H-pyrrolo[3,2-e][1,2,3]triazolo[1,5-c]pyrimidin-1-yl)piperidin-1-yl]methyl}oxazole] | 0.97 µM | 0.039 µM |  |  |  |  |  | 
23 | 0.044 µM | 0.53 µM | O=C1OCCC1NC[C@H]1CC[C@H](c2nnn3cnc4[nH]ccc4c23)CC1 (stereo partly drawn) [compound 279, 3-({[trans-4-(7H-pyrrolo[3,2-e][1,2,3]triazolo[1,5-c]pyrimidin-1-yl)cyclohexyl]methyl}amino)dihydrofuran-2(3H)-one] | 0.2 µM | 0.0074 µM |  |  |  |  |  | 
24 | 0.0046 µM | 0.055 µM | Brc1ccc(CN2CCC(c3nnn4cnc5[nH]ccc5c34)CC2)s1 [compound 238, 1-{1-[(5-bromothiophen-2-yl)methyl]piperidin-4-yl}-7H-pyrrolo[3,2-e][1,2,3]triazolo[1,5-c]pyrimidine] | 0.11 µM | 0.00079 µM |  |  |  |  |  | 
25 | 0.032 µM | 0.12 µM | COc1ccc(C(O)(CN[C@H]2CC[C@H](c3nnn4cnc5[nH]ccc5c34)CC2)C(F)(F)F)cn1 (stereo partly drawn) [387b, 3-{[trans-4-(7H-pyrrolo[3,2-e][1,2,3]triazolo[1,5-c]pyrimidin-1-yl)cyclohexyl]amino}-1,1,1-trifluoro-2-(6-methoxypyridin-3-yl)propan-2-ol] | 0.18 µM | 0.0019 µM |  |  |  |  |  | 
26 | 0.056 µM | 0.49 µM | Fc1ccc(NC[C@H]2CC[C@H](c3nnn4cnc5[nH]ccc5c34)CC2)cc1F [compound 249, N-{[trans-4-(7H-pyrrolo[3,2-e][1,2,3]triazolo[1,5-c]pyrimidin-1-yl)cyclohexyl]methyl}-3,4-difluoroaniline] | 0.86 µM | 0.017 µM |  |  |  |  |  | 
27 | 0.0081 µM | 0.27 µM | N#CCNC[C@H]1CC[C@H](c2nnn3cnc4[nH]ccc4c23)CC1 [compound 259, 2-({[trans-4-(7H-pyrrolo[3,2-e][1,2,3]triazolo[1,5-c]pyrimidin-1-yl)cyclohexyl]methyl}amino)acetonitrile] | 0.037 µM | 0.0021 µM |  |  |  |  |  | 
28 | 0.0056 µM | 0.054 µM | N#CCN(C[C@H]1CC[C@H](c2nnn3cnc4[nH]ccc4c23)CC1)C(=O)CC(F)(F)F [compound 412, N-{[trans-4-(7H-Pyrrolo[3,2-e][1,2,3]triazolo[1,5-c]pyrimidin-1-yl)cyclohexyl]methyl}-N-(cyanomethyl)-3,3,3-trifluoropropanamide] | 0.32 µM | 0.0026 µM |  |  |  |  |  | 
